US20050137175A1, “Use of ecdysteroids for preparing dermatological or cosmetological anti-hair loss compositions” (L'OREAL, priority 2003, published 2005)

Tests used:
[1] = tested on: human hair follicle; assay: Human hair follicle survival in vitro model; format: cell-based
Procedure: We had developed and patented a model for a surviving human follicle in vitro (FR 95-08465) making it possible to evaluate the effect of a substance on follicle survival and extension. We used this in vitro model for evaluating the effect of ecdysterone on hair follicle growth and survival. Various concentrations of this substance were tested: 0.01 μg/ml, 0.1 μg/ml, 1 μg/ml and 10 μg/ml.

[2] = tested on: C3H murine model; details: cited from earlier work
[3] = tested on: hair follicle; assay: Maintenance of hair follicle integrity in vitro (antibody labelling of compartment markers Ki67, keratin K14, transglutaminase, keratin hHa5); format: cell-based, human; details: 14 days of culture, ecdysterone 0.01 μg/ml, compared with reference follicle at D=0
Excerpt: In order to characterize more fully the effect of this substance on the hair follicle, we monitored the mitotic activity of the bulb cells and also the various specific differentiation programmes of the outer sheath, of the inner sheath and of the pilar shaft, in the presence or absence of this substance.
The integrity of the follicle compartments after 14 days of culture was thus monitored by means of antibodies that recognize markers specific for each of these compartments: the mitosis marker Ki67, specific for the matrix (S. Commo & B. A. Bernard, 1997, Br. J. Dermatol. 137: 31-38); keratin K14, specific for the outer sheath (ibid.); transglutaminase, specific for the inner sheath (ibid.); and keratin hHa5, specific for the pillar shaft, and in particular the keratogenic zone and the cuticle (L. Langbein et al., 1999, J. Biol. Chem. 274: 19874-19884).

CC(C)(O)CC[C@@H](O)[C@](C)(O)[C@H]1CC[C@@]2(O)C3=CC(=O)[C@@H]4C[C@@H](O)[C@@H](O)C[C@]4(C)[C@H]3CC[C@]12C [ecdysterone]
human hair follicle survival in vitro ([1]; ecdysterone 0.01 μg/ml): significantly increases human hair follicle survival | human hair follicle survival in vitro ([1]; ecdysterone 0.1 μg/ml): significantly increases human hair follicle survival | human hair follicle survival in vitro ([1]; ecdysterone 10 μg/ml): significantly increases human hair follicle survival | hair regrowth [2]: stimulate hair regrowth | expression of follicle compartment markers (Ki67, keratin K14, transglutaminase, keratin hHa5) [3]: all the markers studied conserve an expression that is comparable to that of the reference follicle at D=0
